Test results from article PMC6100082, “Pyridine-Ureas as Potential Anticancer Agents: Synthesis and In Vitro Biological Evaluation” (Molecules : A Journal of Synthetic Chemistry and Natural …, 2018).
Read-outs that look alike come from different tables or passages of the source.

Experiments:
Type in all cases: cell-based, human
[1] = test system: breast cancer MCF-7 cell line; experiment: In vitro anti-proliferative activity, MTT assay; conditions: Homo sapiens, MCF-7, MTT
Summary of the method: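 Growth inhibition was read colorimetrically by MTT, run in triplicate and averaged over at least three independent experiments. The cells were maintained in DMEM supplemented with 10 μg/mL insulin, 10% heat-inactivated FBS and 1% penicillin-streptomycin.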

NCI 58 cell line panel = experiment: NCI one-dose SRB assay, whole panel / subpanel summary; conditions: for inhibition at 10 µM: Homo sapiens, one dose, read-out: mean inhibition (mean % growth inhibition over NCI 58 cell line panel); for Mean Growth Percent: One Dose Mean Graph, 1.00E-5 Molar
Summary of the method: (§1)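 Tested once at 10^−5 M over 48 h. SRB protein staining measured growth. GI% values.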

SF-268 = experiment: NCI one-dose SRB assay (CNS Cancer); conditions: for inhibition at 10 µM: Homo sapiens, SF-268, 10 μM, read-out: Percentage growth inhibition (GI%); for Growth Percent: SF-268, 1.00E-5 Molar
Summary of the method: as §1

SF-295 = experiment: NCI one-dose SRB assay (CNS Cancer); conditions: for inhibition at 10 µM: Homo sapiens, SF-295, 10 μM, read-out: Percentage growth inhibition (GI%); for Growth Percent: SF-295, 1.00E-5 Molar
Summary of the method: as §1

SF-539 = experiment: NCI one-dose SRB assay (CNS Cancer); conditions: for inhibition at 10 µM: Homo sapiens, SF-539, 10 μM, read-out: Percentage growth inhibition (GI%); for Growth Percent: SF-539, 1.00E-5 Molar
Summary of the method: as §1

SNB-19 = experiment: NCI one-dose SRB assay (CNS Cancer); conditions: for inhibition at 10 µM: Homo sapiens, SNB-19, 10 μM, read-out: Percentage growth inhibition (GI%); for Growth Percent: SNB-19, 1.00E-5 Molar
Summary of the method: as §1

SNB-75 = experiment: NCI one-dose SRB assay (CNS Cancer); conditions: for inhibition at 10 µM: Homo sapiens, SNB-75, 10 μM, read-out: Percentage growth inhibition (GI%); for Growth Percent: SNB-75, 1.00E-5 Molar
Summary of the method: as §1

U251 = experiment: NCI one-dose SRB assay (CNS Cancer); conditions: for inhibition at 10 µM: Homo sapiens, U-251, U251, 10 μM, read-out: Percentage growth inhibition (GI%); for Growth Percent: U251, 1.00E-5 Molar
Summary of the method: as §1

IGROV1 = experiment: NCI one-dose SRB assay (Ovarian Cancer); conditions: for inhibition at 10 µM: Homo sapiens, IGROV-1, IGROV1, 10 μM, read-out: Percentage growth inhibition (GI%); for Growth Percent: IGROV1, 1.00E-5 Molar
Summary of the method: as §1

NCI/ADR-RES = experiment: NCI one-dose SRB assay (Ovarian Cancer); conditions: for Growth Percent: 1.00E-5 Molar; for inhibition at 10 µM: Homo sapiens, read-out: Percentage growth inhibition (GI%)
Summary of the method: as §1

OVCAR-3 = experiment: NCI one-dose SRB assay (Ovarian Cancer); conditions: for inhibition at 10 µM: Homo sapiens, OVCAR-3, 10 μM, read-out: Percentage growth inhibition (GI%); for Growth Percent: OVCAR-3, 1.00E-5 Molar
Summary of the method: as §1

OVCAR-4 = experiment: NCI one-dose SRB assay (Ovarian Cancer); conditions: for inhibition at 10 µM: Homo sapiens, OVCAR-4, 10 μM, read-out: Percentage growth inhibition (GI%); for Growth Percent: OVCAR-4, 1.00E-5 Molar
Summary of the method: as §1

OVCAR-5 = experiment: NCI one-dose SRB assay (Ovarian Cancer); conditions: for inhibition at 10 µM: Homo sapiens, OVCAR-5, 10 μM, read-out: Percentage growth inhibition (GI%); for Growth Percent: OVCAR-5, 1.00E-5 Molar
Summary of the method: as §1

OVCAR-8 = experiment: NCI one-dose SRB assay (Ovarian Cancer); conditions: for inhibition at 10 µM: Homo sapiens, OVCAR-8, 10 μM, read-out: Percentage growth inhibition (GI%); for Growth Percent: OVCAR-8, 1.00E-5 Molar
Summary of the method: as §1

SK-OV-3 = experiment: NCI one-dose SRB assay (Ovarian Cancer); conditions: for inhibition at 10 µM: Homo sapiens, SK-OV-3, 10 μM, read-out: Percentage growth inhibition (GI%); for Growth Percent: SK-OV-3, 1.00E-5 Molar
Summary of the method: as §1

786-0 = experiment: NCI one-dose SRB assay (Renal Cancer); conditions: for Growth Percent: 786-0, 1.00E-5 Molar; for inhibition at 10 µM: Homo sapiens, 786-0, 10 μM, read-out: Percentage growth inhibition (GI%)
Summary of the method: as §1

A498 = experiment: NCI one-dose SRB assay (Renal Cancer); conditions: for Growth Percent: A498, 1.00E-5 Molar; for inhibition at 10 µM: Homo sapiens, A498, 10 μM, read-out: Percentage growth inhibition (GI%)
Summary of the method: as §1

RXF 393 = experiment: NCI one-dose SRB assay (Renal Cancer); conditions: for inhibition at 10 µM: Homo sapiens, RXF 393, 10 μM, read-out: Percentage growth inhibition (GI%); for Growth Percent: RXF 393, 1.00E-5 Molar
Summary of the method: as §1

SN12C = experiment: NCI one-dose SRB assay (Renal Cancer); conditions: for Growth Percent: 1.00E-5 Molar; for inhibition at 10 µM: Homo sapiens, read-out: Percentage growth inhibition (GI%)
Summary of the method: as §1

TK-10 = experiment: NCI one-dose SRB assay (Renal Cancer); conditions: for inhibition at 10 µM: Homo sapiens, TK-10, 10 μM, read-out: Percentage growth inhibition (GI%); for Growth Percent: TK-10, 1.00E-5 Molar
Summary of the method: as §1

UO-31 = experiment: NCI one-dose SRB assay (Renal Cancer); conditions: for inhibition at 10 µM: Homo sapiens, UO-31, 10 μM, read-out: Percentage growth inhibition (GI%); for Growth Percent: UO-31, 1.00E-5 Molar
Summary of the method: as §1

PC-3 = experiment: NCI one-dose SRB assay (Prostate); conditions: for inhibition at 10 µM: Homo sapiens, PC-3, 10 μM, read-out: Percentage growth inhibition (GI%); for Growth Percent: PC-3, 1.00E-5 Molar
Summary of the method: as §1

[2] = MCF7, 48 h, 48 h of incubation, read-out: IC50 48 h
[3] = MCF7, 72 h, 72 h of incubation, read-out: IC50 72 h

COc1cccc(NC(=O)Nc2ccc(-c3ccc(OC)c(OC)c3)nc2C)c1 [Compound 8m, 1-(6-(3,4-Dimethoxyphenyl)-2-methylpyridin-3-yl)-3-(3-methoxyphenyl) Urea]
IC50 [1, 2]: 23 ± 1.91 µM | IC50 [1, 3]: 13.1 ± 1.12 µM | inhibition at 10 µM (NCI 58 cell line panel): 8% | Mean Growth Percent (NCI 58 cell line panel): 92.83% | inhibition at 10 µM (SF-268): < 10% | Growth Percent (SF-268): 94.56% | inhibition at 10 µM (SF-295): < 10% | Growth Percent (SF-295): 99.68% | inhibition at 10 µM (SF-539): < 10% | Growth Percent (SF-539): 93.97% | inhibition at 10 µM (SNB-19): < 10% | Growth Percent (SNB-19): 115.50% | inhibition at 10 µM (SNB-75): < 10% | Growth Percent (SNB-75): 104.39% | inhibition at 10 µM (U251): < 10% | Growth Percent (U251): 94.15% | inhibition at 10 µM (IGROV1): < 10% | Growth Percent (IGROV1): 112.08% | Growth Percent (NCI/ADR-RES): 92.25% | inhibition at 10 µM (NCI/ADR-RES): < 10% | inhibition at 10 µM (OVCAR-3): < 10% | Growth Percent (OVCAR-3): 101.69% | inhibition at 10 µM (OVCAR-4): < 10% | Growth Percent (OVCAR-4): 126.33% | inhibition at 10 µM (OVCAR-5): < 10% | Growth Percent (OVCAR-5): 104.54% | inhibition at 10 µM (OVCAR-8): < 10% | Growth Percent (OVCAR-8): 102.37% | inhibition at 10 µM (SK-OV-3): < 10% | Growth Percent (SK-OV-3): 99.49% | Growth Percent (786-0): 92.27% | inhibition at 10 µM (786-0): < 10% | Growth Percent (A498): 85.18% | inhibition at 10 µM (A498): 15% | inhibition at 10 µM (RXF 393): < 10% | Growth Percent (RXF 393): 108.45% | Growth Percent (SN12C): 93.61% | inhibition at 10 µM (SN12C): < 10% | inhibition at 10 µM (TK-10): < 10% | Growth Percent (TK-10): 96.16% | inhibition at 10 µM (UO-31): 20% | Growth Percent (UO-31): 80.45% | inhibition at 10 µM (PC-3): 41% | Growth Percent (PC-3): 59.08%

COc1ccc(NC(=O)Nc2ccc(-c3ccc(OC)c(OC)c3)nc2C)cc1 [Compound 8n, 1-(6-(3,4-Dimethoxyphenyl)-2-methylpyridin-3-yl)-3-(4-methoxyphenyl) Urea]
IC50 [1, 2]: 1.88 ± 0.12 µM | IC50 [1, 3]: 0.8 ± 0.07 µM | inhibition at 10 µM (NCI 58 cell line panel): 22 to 34% | Mean Growth Percent (NCI 58 cell line panel): 66.18% | inhibition at 10 µM (SF-268): 41% | Growth Percent (SF-268): 59.25% | inhibition at 10 µM (SF-295): < 10% | Growth Percent (SF-295): 101.75% | inhibition at 10 µM (SF-539): 30% | Growth Percent (SF-539): 70.63% | inhibition at 10 µM (SNB-19): 29% | Growth Percent (SNB-19): 71.47% | inhibition at 10 µM (SNB-75): 53% | Growth Percent (SNB-75): 47.52% | inhibition at 10 µM (U251): 78% | Growth Percent (U251): 22.08% | inhibition at 10 µM (IGROV1): 23% | Growth Percent (IGROV1): 77.14% | Growth Percent (NCI/ADR-RES): 84.96% | inhibition at 10 µM (NCI/ADR-RES): 16% | inhibition at 10 µM (OVCAR-3): < 10% | Growth Percent (OVCAR-3): 102.08% | inhibition at 10 µM (OVCAR-4): 71% | Growth Percent (OVCAR-4): 29.55% | inhibition at 10 µM (OVCAR-5): < 10% | Growth Percent (OVCAR-5): 98.04% | inhibition at 10 µM (OVCAR-8): 53% | Growth Percent (OVCAR-8): 47.38% | inhibition at 10 µM (SK-OV-3): 26% | Growth Percent (SK-OV-3): 74.76% | Growth Percent (786-0): 11.07% | inhibition at 10 µM (786-0): 89% | Growth Percent (A498): 71.94% | inhibition at 10 µM (A498): 29% | inhibition at 10 µM (RXF 393): 42% | Growth Percent (RXF 393): 58.20% | Growth Percent (SN12C): 64.38% | inhibition at 10 µM (SN12C): 36% | inhibition at 10 µM (TK-10): 40% | Growth Percent (TK-10): 60.42% | inhibition at 10 µM (UO-31): 19% | Growth Percent (UO-31): 81.72% | inhibition at 10 µM (PC-3): 19% | Growth Percent (PC-3): 81.42%
